Test results: US9783510B2, “Small molecule mediated transcriptional induction of E-cadherin” (Vanderbilt University, priority 2014, dated 2017)

Tests used:
[1] = tested on: E-cadherin expression in H520 cells; experiment: E-cadherin expression, in-cell Western (ICW), H520 cells; assay type: cell-based; settings: Homo sapiens, NCI-H520; for fold induction at 10 µM: change in expression level of E-cadherin in response to 10 μM compound, 24 hours, H520 cells; for EC50: inducement of E-cadherin expression in H520 cells
Experimental: SW620 and H520 cells (5×10^4/100 μL) were seeded in a 96-well plate prior to treatment. Cells were treated with 10 μM concentration of synthesized compound in quadruplicate for 24 hours in RPMI 1640 supplemented medium and 100 μg/mL penicillin-streptomycin. The cells were then fixed with 100% methanol for 20 minutes at 4° C. The wells were then washed 2 times with PBS, permeabilized in 2% bovine serum albumin (BSA) and 0.2% TritonX-100 in PBS for 30 minutes at room temperature with gentle agitation, and blocked in LI-COR blocking buffer for 30 minutes at room temperature with gentle agitation. The cells were then incubated with the following primary antibodies: anti-E-Cadherin (1:500) and anti-α-Tubulin (1:1000) diluted in blocking buffer (1:1 dilution in PBS) for 2 hours at room temperature with gentle agitation. The cells were washed 4 times in PBS-T for 5 minutes each, and then incubated with the following secondary antibodies conjugated to a fluorescent entity: IRDye 800-conjugated goat anti-rabbit IgG (1:1000) and IRDye-700-conjugated goat anti-mouse IgG (1:2000) in blocking buffer (1:1 dilution in PBS) with gentle agitation for 1 h at room temperature. The cells were washed 4 times in PBS-T for 5 minutes each followed by a single wash with PBS. All liquid was removed from the wells and the plates were visualized and analyzed on the Odyssey IR imaging system (LI-COR Biosciences).
The assay was further optimized in the following manner. The cells were washed 2 times with PBS, fixed in 100% methanol at room temperature for 15 minutes, and again washed 2 times with PBS. The cells were then incubated with the following primary antibodies: anti-E-Cadherin (1:200) and anti-α-Tubulin (1:2000) diluted in ice cold 2% bovine serum albumin (BSA) and 0.2% TritonX-100 in PBS for 1 hour at room temperature with gentle agitation. The cells were washed 2 times in PBS and then incubated with the following secondary antibodies conjugated to a fluorescent entity: Licor 800-conjugated goat anti-rabbit IgG (1:2000) and IRDye-700-conjugated goat anti-mouse IgG (1:2000) in ice cold 2% BSA and 0.2% TritonX-100 in PBS with gentle agitation for 45 minutes at room temperature. The wells were washed 2 times in PBS, dried, and analyzed as previously mentioned.
Changes in expression level of E-cadherin in response to 10 μM compound in H520 cells was determined in a cell-based functional assay as described above, and the data are shown in Table IV. The compound number corresponds to the compound numbers used in Table II.
EC50 of inducement of E-cadherin expression in H520 cells was determined in a cell-based functional assay as described above, and the data are shown in Table VI. The compound number corresponds to the compound numbers used in Table II.

[2] = tested on: E-cadherin expression in SW620 cells; experiment: E-cadherin expression, in-cell Western (ICW), SW620 cells; assay type: cell-based; settings: Homo sapiens; for fold induction at 10 µM: SW-620, 24 h, change in expression level of E-cadherin in response to 10 μM compound, 24 hours, SW620 cells; for EC50: SW-620, inducement of E-cadherin expression in SW620 cells
In short: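 SW620 cells were treated with compound for 24 h in RPMI 1640 (single-point at 10 μM; EC50 also determined), in quadruplicate. After methanol fixation, in-cell Western with anti-E-cadherin and anti-α-tubulin primaries and IRDye 800/700 secondaries. Read on an Odyssey IR imager.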

[3] = tested on: proximal region of the E-cadherin promoter (Cdh1) in SW620inv cells; experiment: ChIP assay at proximal E-cadherin promoter, SW620inv cells; assay type: cell-based; settings: ChIP (FIG. 8)
[4] = tested on: E-cadherin, H3K9Ac, H3K4me3, H3K27me3, H3K4me2 in SW620inv cells; experiment: Western blot time course of E-cadherin and histone H3 marks, SW620inv cells; assay type: cell-based
HMEC-1 cells = experiment: E-cadherin, VE-cadherin, Vimentin and histone marks in HMEC-1 cells (qPCR, Western blot); assay type: cell-based, human; settings: after 48 hours of treatment
cyclin D1 protein = experiment: Cyclin D1 protein by ICW (control for cycloheximide); assay type: cell-based; settings: within the 7 hour experimental interval
Experimental: Compound 13 increased the mRNA levels of E-cadherin specific mRNA by 27-fold in SW620inv cells (FIG. 3B) and by 20-fold in H520 cells (FIG. 3C) by 6 hours post-treatment. […] Whether de novo protein synthesis was required for the effect of Compound 13 on E-cadherin mRNA expression was determined. For these experiments, cells were treated with cycloheximide prior to application of Compound 13 and the expression of E-cadherin mRNA was evaluated 6 hours post-treatment for best sensitivity. The levels of cyclin D1 protein, known to have a very short half-life of ˜20 minutes (Diehl, J. A., et al. (1998) Genes & Development 12, 3499-3511), were analyzed as a positive control for the effectiveness of cycloheximide (CHX) treatment.
Referring to FIG. 4B and FIG. 4C, quantification of cyclin D1 protein by ICW, as described above, and under similar conditions as in (4A) at 6 h post-treatment with or without cyclohexamide.

SMILES	fold induction at 10 µM [1]	fold induction at 10 µM [2]	also measured
O=C(NCCCNC(=O)c1n[nH]c2ccccc12)c1cc(-c2ccccc2)on1 [Compound 22, N-(3-(1H-indazole-3-carboxamido)propyl)-5-phenylisoxazole-3-carboxamide]	1.88	1.62	
O=C(NCCNC(=O)c1cc(-c2ccccc2)[nH]n1)c1ccncc1 [Compound 124, N-(2-(5-phenyl-1H-pyrazole-3-carboxamido)ethyl)isonicotinamide]	1.22	1.29	Pol II association with the E-cadherin proximal promoter [3]: did not show any effect
CC(/C=C/C(=O)NO)=C\[C@@H](C)C(=O)c1ccc(N(C)C)cc1 [TSA, trichostatin A]			modification of the repressive marker H3K27me3 [4]: Less overall modification; time of peak of H3K9Ac and H3K4me3 levels ([4]; 0.33 μM TSA): 6 h; time at which increase in H3K9Ac and H3K4me3 levels is first observed ([4]; 10 μM Compound 13, 0.33 μM TSA): 1 h; restoring E-cadherin in HMEC-1 cells (HMEC-1 cells): neither TSA nor 5-Aza, nor the combination of these two agents, was effective
Nc1ncn([C@@H]2O[C@H](CO)[C@@H](O)[C@H]2O)c(=O)n1 [Compound 5-Aza, 5-azacytidine]			restoring E-cadherin in HMEC-1 cells (HMEC-1 cells): neither TSA nor 5-Aza, nor the combination of these two agents, was effective
O=C(NCCNC(=O)c1cc(-c2ccccc2)on1)c1ccncc1 [Compound 4, N-(2-(isonicotinamido)ethyl)-5-phenylisoxazole-3-carboxamide]	2.87	2.79	EC50 [1]: 5.1 µM; EC50 [2]: 8.8 µM
O=C(Cc1ccccc1O)NCCNC(=O)c1cc(-c2ccccc2)[nH]n1 [Compound 123, N-(2-(2-(2-hydroxyphenyl)acetamido)ethyl)-5-phenyl-1H-pyrazole-3-carboxamide]	1.24	1.37	
C[C@@H]1C[C@@H]([C@H](O)CC2CC(=O)NC(=O)C2)C(=O)[C@@H](C)C1 [cycloheximide]			cyclin D1 levels (cyclin D1 protein): markedly reduced; β-actin protein levels (cyclin D1 protein): not significantly altered
O=C(NCCNC(=O)c1cc(Br)ccc1O)c1cc(-c2ccccc2)on1 [Compound 2, N-(2-(5-bromo-2-hydroxybenzamido)ethyl)-5-phenylisoxazole-3-carboxamide]	1.14	1.18	
O=C(NCCNC(=O)c1nccs1)c1cc(-c2ccccc2)[nH]n1 [Compound 125, N-(2-(5-phenyl-1H-pyrazole-3-carboxamido)ethyl)thiazole-2-carboxamide]	1.1	1.77	
O=C(Cc1ccccc1O)NCCCNC(=O)c1cc(-c2ccccc2)on1 [Compound 21, N-(3-(2-(2-hydroxyphenyl)acetamido)propyl)-5-phenylisoxazole-3-carboxamide]	5.92	4.92	EC50 [1]: 1.5 µM; EC50 [2]: 4.97 µM
O=C(Cc1ccccc1O)NCCNC(=O)c1cc(-c2ccccc2)on1 [Compound 1, N-(2-(2-(2-hydroxyphenyl)acetamido)ethyl)-5-phenylisoxazole-3-carboxamide]	3.51	3.4	EC50 [1]: 5.6 µM; EC50 [2]: 3.7 µM
O=C(NCCCNC(=O)c1cc(F)ccc1O)c1cc(-c2ccccc2)on1 [Compound 20, N-(3-(5-fluoro-2-hydroxybenzamido)propyl)-5-phenylisoxazole-3-carboxamide]	5.27	2.43	EC50 [1]: 1.4 µM; EC50 [2]: 5 µM
O=C(NCCNC(=O)c1cc(F)ccc1O)c1cc(-c2ccccc2)[nH]n1 [Compound 122, N-(2-(5-fluoro-2-hydroxybenzamido)ethyl)-5-phenyl-1H-pyrazole-3-carboxamide]	1.04	1.45	
O=C(NCCNC(=O)c1nccs1)c1cc(-c2ccccc2)on1 [Compound 5, 5-phenyl-N-(2-(thiazole-2-carboxamido)ethyl)isoxazole-3-carboxamide]	4.22	8.98	EC50 [2]: 4.8 µM
CCc1ccc(C(=O)NCCCNC(=O)c2cc(-c3cccs3)on2)o1 [Compound 101, N-(3-(5-ethylfuran-2-carboxamido)propyl)-5-(thiophen-2-yl)isoxazole-3-carboxamide]		4.24	EC50 [2]: 4.12 µM
O=C(NCCCNC(=O)c1ccc2ccccc2n1)c1cc(-c2cccs2)on1 [Compound 72, N-(3-(quinoline-2-carboxamido)propyl)-5-(thiophen-2-yl)isoxazole-3-carboxamide]		3.13	
Cc1cncc(C(=O)NCCCNC(=O)c2cc(-c3cccs3)on2)n1 [Compound 97, N-(3-(6-methylpyrazine-2-carboxamido)propyl)-5-(thiophen-2-yl)isoxazole-3-carboxamide]		3.82	
COc1ncccc1C(=O)NCCCNC(=O)c1cc(-c2cccs2)on1 [Compound 52, N-(3-(2-methoxynicotinamido)propyl)-5-(thiophen-2-yl)isoxazole-3-carboxamide]		3.99	
O=C(NCCCNC(=O)c1nccs1)c1cc(-c2ccccc2)on1 [Compound 35, 5-phenyl-N-(3-(thiazole-2-carboxamido)propyl)isoxazole-3-carboxamide]		2.61	
Cn1ccc(C(=O)NCCCNC(=O)c2cc(-c3ccccc3)on2)n1 [Compound 28, N-(3-(1-methyl-1H-pyrazole-3-carboxamido)propyl)-5-phenylisoxazole-3-carboxamide]		3.42	
O=C(NCCCNC(=O)c1cccc(Cl)n1)c1cc(-c2ccccc2)on1 [Compound 92, N-(3-(6-chloropicolinamido)propyl)-5-phenylisoxazole-3-carboxamide]		3.13	
Cc1ccc(C(=O)NCCCNC(=O)c2cc(-c3ccccc3)on2)o1 [Compound 38, N-(3-(5-methylfuran-2-carboxamido)propyl)-5-phenylisoxazole-3-carboxamide]		3.37	
